Activity calls are given as the source filed them. No cut-off for these calls is given here.
Tests used:
MCF7 [1] = experiment: Anticancer activity against human MCF7 cells assessed as cell growth inhibition incubated for 24 hrs by alamar blue assay; type: functional, cell-based; conditions: MCF7, 24 h
MCF7 [2] = experiment: Anticancer activity against human MCF7 cells assessed as reduction in cell viability incubated for 24 hrs in presence of 10% CD-FBS by alamar blue assay; type: functional, cell-based
MCF7 [3] = experiment: Anticancer activity against ERalpha positive human MCF7 cells assessed as cell growth inhibition incubated for 72 hrs by alamar blue assay; type: functional, cell-based; conditions: MCF7, 72 h
MDA-MB-231 [4] = experiment: Anticancer activity against ERalpha negative human MDA-MB-231 cells assessed as cell growth inhibition incubated for 24 hrs by alamar blue assay; type: functional, cell-based; conditions: MDA-MB-231, 24 h
MDA-MB-231 [5] = experiment: Anticancer activity against ERalpha negative human MDA-MB-231 cells assessed as cell growth inhibition incubated for 72 hrs by alamar blue assay; type: functional, cell-based; conditions: MDA-MB-231, 72 h
HCT-116 [6] = experiment: Anticancer activity against ERalpha negative human HCT-116 cells assessed as cell growth inhibition incubated for 24 hrs by alamar blue assay; type: functional, cell-based; conditions: HCT-116, 24 h
HCT-116 [7] = experiment: Anticancer activity against ERalpha negative human HCT-116 cells assessed as cell growth inhibition incubated for 72 hrs by alamar blue assay; type: functional, cell-based; conditions: HCT-116, 72 h
HT-29 [8] = experiment: Anticancer activity against ERalpha negative human HT-29 cells assessed as cell growth inhibition incubated for 24 hrs by alamar blue assay; type: functional, cell-based; conditions: HT-29, 24 h
HT-29 [9] = experiment: Anticancer activity against ERalpha negative human HT-29 cells assessed as cell growth inhibition incubated for 72 hrs by alamar blue assay; type: functional, cell-based; conditions: HT-29, 72 h
[10] = Selectivity ratio of IC50 for human MDA-MB-231 cells to IC50 for human MCF7 cells; type: functional
[11] = Selectivity ratio of IC50 for human HCT-116 cells to IC50 for human MCF7 cells; type: functional
[12] = Selectivity ratio of IC50 for human HT-29 cells to IC50 for human MCF7 cells; type: functional
[13] = Stability of the compound in simulated gastric fluid assessed as compound remaining measured after 120 mins by LC-MS/MS; type: ADME; conditions: read-out: Stability
T47D [14] = experiment: Anticancer activity against human T47D cells harbouring ERalphaY537S mutant assessed as cell growth inhibition incubated for 24 hrs by alamar blue assay; type: functional, cell-based
T47D [15] = experiment: Anticancer activity against human T47D cells harbouring ERalphaD538G mutant assessed as cell growth inhibition incubated for 24 hrs by alamar blue assay; type: functional, cell-based
T47D [16] = experiment: Anticancer activity against ERalpha positive human T47D cells assessed as cell growth inhibition incubated for 24 hrs by alamar blue assay; type: functional, cell-based
MDA-MB-436 [17] = experiment: Anticancer activity against ERalpha negative human MDA-MB-436 cells assessed as cell growth inhibition incubated for 24 hrs by alamar blue assay; type: functional, cell-based; conditions: MDA-MB-436, 24 h
MDA-MB-231 [18] = experiment: Anticancer activity against ERalpha negative human MDA-MB-231 cells assessed as cell growth inhibition incubated for 168 hrs by alamar blue assay; type: functional, cell-based; conditions: MDA-MB-231, 168 h
MDA-MB-436 [19] = experiment: Anticancer activity against ERalpha negative human MDA-MB-436 cells assessed as cell growth inhibition incubated for 72 hrs by alamar blue assay; type: functional, cell-based; conditions: MDA-MB-436, 72 h
HCT-116 [20] = experiment: Induction of ER stress in human HCT-116 cells assessed as increase in phospho-EIF2alpha expression at 0.1 to 10 uM measured after 24 to 48 hrs by Western blot analysis; type: functional, cell-based; conditions: dose 0.1-10 µM, time 24-48 hrs
[21] = Cmax in CD-1 mouse at 20 mg/kg, iv by LC-MS/MS analysis; type: ADME, organism-based; design: dose 20 mg/kg, route iv; conditions: mouse, in vivo
[22] = Oral bioavailability in mouse; type: ADME, organism-based; conditions: in vivo
[23] = Half life in mouse; type: ADME, organism-based; conditions: in vivo
[24] = AUC in CD-1 mouse at 20 mg/kg, iv by LC-MS/MS analysis; type: ADME, organism-based; design: dose 20 mg/kg, route iv; conditions: mouse, in vivo
[25] = Half life in CD-1 mouse at 20 mg/kg, iv by LC-MS/MS analysis; type: ADME, organism-based; conditions: mouse, in vivo, iv, 20 mg/kg
[26] = MRT in CD-1 mouse at 20 mg/kg, iv by LC-MS/MS analysis; type: ADME, organism-based; conditions: mouse, in vivo, iv, 20 mg/kg
[27] = Volume of distribution at steady state in CD-1 mouse at 20 mg/kg, iv by LC-MS/MS analysis; type: ADME, organism-based; conditions: mouse, in vivo, iv, 20 mg/kg
[28] = Toxicity in po dosed CD-1 mouse assessed as maximum tolerated dose administered as single dose; type: organism-based; conditions: in vivo
[29] = Toxicity in iv dosed Sprague-Dawley rat assessed as maximum tolerated dose administered as single dose; type: organism-based; conditions: in vivo
MCF7 [30] = experiment: Antitumor activity against human MCF7 cells xenografted in athymic nude mouse assessed as reduction in tumor growth at 5 mg/kg, iv administered once a week for three doses administered for 14 days; type: functional, organism-based; conditions: time 14.0 day
[31] = Toxicity in athymic nude mouse xenografted with human MCF7 cells assessed as change in body weight at 5 mg/kg, iv administered once a week for three doses administered for 14 days; type: organism-based; conditions: in vivo, 336 h, time 14 day
MCF7 [32] = experiment: Anticancer activity against human MCF7 cells assessed as reduction in cell viability incubated for 24 hrs in presence of 10% CD-FBS and 17-beta-estradiol by alamar blue assay; type: functional, cell-based
HCT-116 [33] = experiment: Induction of ER stress in human HCT-116 cells assessed as increase in ATF6alpha-p90 cleavage at 0.1 to 10 uM measured after 24 to 48 hrs by Western blot analysis; type: functional, cell-based; conditions: dose 0.1-10 µM, time 24-48 hrs

O=C1Nc2c(C(F)(F)F)cccc2C1(c1ccc(O)cc1)N1CCC(O)CC1 (configuration not stated)
IC50 (MCF7 [1]): > 1 µM

O=C1Nc2c(C(F)(F)F)cccc2[C@]1(c1ccc(O)cc1)N1CC(F)(F)C(F)(F)C1
IC50 (MCF7 [1]): > 1 µM | IC50 (MCF7 [2]; MCF7, 24 h): > 1 µM | IC50 (MCF7 [3]): > 1 µM

O=C1Nc2c(C(F)(F)F)cccc2C1(c1ccc(O)cc1)N1CCC(OC(F)(F)F)CC1 (configuration not stated)
IC50 (MCF7 [1]): 0.135 µM

CC1CN(C2(c3ccc(O)cc3)C(=O)Nc3c(C(F)(F)F)cccc32)CCC1(F)F (configuration not stated)
IC50 (MCF7 [1]): 0.07 µM

O=C1Nc2c(C(F)(F)F)cccc2[C@@]1(c1ccc(O)cc1)N1CCCC(F)(F)C1
IC50 (MCF7 [1]): 0.039 µM | IC50 (MCF7 [3]): 0.033 µM | IC50 (MDA-MB-231 [4]): 49 µM | IC50 (MDA-MB-231 [5]): 22 µM | IC50 (HCT-116 [6]): 38 µM | IC50 (HCT-116 [7]): 21 µM | IC50 (HT-29 [8]): 29 µM | IC50 (HT-29 [9]): 25 µM | Ratio IC50 [10]: 700 | Ratio IC50 [11]: 600 | Ratio IC50 [12]: 800 | remaining at 2 h [13]: 0%

O=C1Nc2c(C(F)(F)F)cccc2C1(c1ccc(OC(F)(F)F)cc1)c1ccc(OC(F)(F)F)cc1
IC50 (MCF7 [1]): > 1 µM

O=C1Nc2c(C(F)(F)F)cccc2C1(c1ccc(O)cc1)N1CCC(F)(F)CC1 (configuration not stated)
IC50 (MCF7 [1]): 0.035 µM

CC(C)c1cc(C2(c3ccc(OC(F)(F)F)cc3)C(=O)Nc3c(C(F)(F)F)cccc32)cc(C(C)C)c1O (configuration not stated)
IC50 (MCF7 [1]): > 1 µM

O=C1Nc2c(C(F)(F)F)cccc2C1(c1ccc(OC(F)(F)F)cc1)c1cc(F)c(O)c(F)c1 (configuration not stated)
IC50 (MCF7 [1]): > 1 µM

O=C1Nc2c(C(F)(F)F)cccc2[C@@]1(c1ccc(O)cc1)N1CCC(F)CC1
IC50 (MCF7 [1]): > 1 µM | IC50 (MCF7 [3]): 0.147 µM

O=C1Nc2c(C(F)(F)F)cccc2[C@@]1(c1ccc(O)cc1)N1CC(F)(F)C1
IC50 (MCF7 [3]): 0.117 µM

O=C1Nc2c(C(F)(F)F)cccc2C1(c1ccc(O)cc1)N1CCOCC1 (configuration not stated)
IC50 (MCF7 [1]): > 1 µM

O=C1Nc2c(C(F)(F)F)cccc2[C@@]1(c1ccc(O)cc1)C1CCC(F)(F)CC1
IC50 (MCF7 [1]): > 1 µM

O=C1Nc2c(C(F)(F)F)cccc2C1(c1ccc(O)cc1)N1CCCCCC1 (configuration not stated)
IC50 (MCF7 [1]): > 1 µM

Cc1cc(C2(c3ccc(OC(F)(F)F)cc3)C(=O)Nc3c(C(F)(F)F)cccc32)ccc1O (configuration not stated)
IC50 (MCF7 [1]): > 1 µM

O=C1Nc2c(C(F)(F)F)cccc2[C@@]1(c1ccc(O)cc1)N1CCC(F)(F)C1
IC50 (MCF7 [1]): 0.017 µM | IC50 (MDA-MB-231 [4]): 51 µM | IC50 (MDA-MB-231 [5]): 32 µM | IC50 (HCT-116 [6]): 45 µM | IC50 (HCT-116 [7]): 20 µM | IC50 (HT-29 [8]): 35 µM | IC50 (HT-29 [9]): 30 µM | Ratio IC50 [10]: 1500 | Ratio IC50 [11]: 900 | Ratio IC50 [12]: 1400 | remaining at 2 h [13]: 20%

O=C1Nc2c(C(F)(F)F)cccc2C1(c1ccc(O)cc1)N1CCCCC1 (configuration not stated)
IC50 (MCF7 [1]): > 1 µM

O=C1Nc2c(C(F)(F)F)cccc2C1(c1ccc(O)cc1)c1ccc(OC(F)(F)F)cc1 (configuration not stated)
IC50 (T47D [14]): 0.01 µM | IC50 (MCF7 [1]): 0.02 µM | IC50 (T47D [15]): 0.015 µM | Activity (MCF7 [2]): Active | IC50 (T47D [16]): 0.02 µM | IC50 (MDA-MB-436 [17]): 22 µM | IC50 (MDA-MB-231 [4]): 23 µM | IC50 (MDA-MB-231 [5]): 8 µM | IC50 (MDA-MB-231 [18]): 6 µM | IC50 (MDA-MB-436 [19]): 14 µM | IC50 (HCT-116 [6]): 11 µM | IC50 (HCT-116 [7]): 0.26 µM | IC50 (HT-29 [8]): 0.21 µM | IC50 (HT-29 [9]): 0.25 µM | Activity (HCT-116 [20]): Active | Cmax [21]: 7700 ng/mL | bioavailability [22]: 47% | half-life [23]: > 2 h | AUC [24]: 10100 ng·h/mL | t1/2 [25]: 0.917 h | MRT [26]: 5.1 h | Vdss [27]: 10.1 L/kg | MTD [28]: > 150 mg/kg | MTD [29]: 10 mg/kg | Activity (MCF7 [30]): Active | Activity [31]: Non-Toxic | Activity (MCF7 [32]): Active | remaining at 2 h [13]: 93% | Activity (HCT-116 [33]): Active

O=C1Nc2c(C(F)(F)F)cccc2C1(c1ccc(OC(F)(F)F)cc1)c1ccc(O)c(O)c1 (configuration not stated)
IC50 (MCF7 [1]): 0.049 µM

Cc1cc(C2(c3ccc(OC(F)(F)F)cc3)C(=O)Nc3c(C(F)(F)F)cccc32)cc(C)c1O (configuration not stated)
IC50 (MCF7 [1]): > 1 µM

O=C1Nc2c(C(F)(F)F)cccc2[C@]1(c1ccc(OC(F)(F)F)cc1)c1ccc(O)c(O)c1
IC50 (MCF7 [1]): 0.024 µM

O=C1Nc2c(C(F)(F)F)cccc2C1(c1ccc(OC(F)(F)F)cc1)c1ccc(O)cc1F (configuration not stated)
IC50 (MCF7 [1]): 0.177 µM

O=C1Nc2c(C(F)(F)F)cccc2C1(c1ccc(OC(F)(F)F)cc1)c1ccc(O)c(F)c1 (configuration not stated)
IC50 (MCF7 [1]): 0.033 µM

O=C1Nc2c(C(F)(F)F)cccc2[C@@]1(c1ccc(O)cc1)N1CC(F)(F)C(F)(F)C1
IC50 (MCF7 [1]): 0.005 µM | IC50 (MCF7 [3]): 0.004 µM | IC50 (MDA-MB-231 [4]): 22 µM | IC50 (MDA-MB-231 [5]): 14 µM | IC50 (HCT-116 [6]): 24 µM | IC50 (HCT-116 [7]): 15 µM | IC50 (HT-29 [8]): 25 µM | IC50 (HT-29 [9]): 15 µM | Ratio IC50 [10]: 3500 | Ratio IC50 [11]: 3800 | Ratio IC50 [12]: 3800 | remaining at 2 h [13]: 27%
